According to patent US7888357B2, “Anti-inflammatory and protein kinase inhibitor compositions and related methods for downregulation of detrimental cellular responses and inhibition of cell death” (Northwestern University, priority 2001, dated 2011):

Tests used:
BV-2 microglial cells = assay: Cell-based screen for inhibition of LPS-stimulated NO release (Griess assay); set-up: species or system murine; conditions: LPS-stimulated BV-2 cells, 24 hr, nitrite in conditioned media
Protocol: FIG. 1. Cell-based screen for inhibition of LPS-stimulated NO release. […] Inhibition is expressed as percent control, where the control is the NO accumulation from cells stimulated with LPS alone.
The rationale for using BV-2 cells in high throughput screening was the paucity of well-characterized human microglial cell lines, and the relevant activation responses and signaling pathways reflect those seen in human and rodent primary microglial cultures. Compounds were tested for their effects on NO accumulation in conditioned media of LPS-stimulated BV-2 cells by measurement of nitrite production by the Griess assay as a read-out for iNOS activity, as described previously. Stock solutions of compounds were prepared in dimethylsulfoxide (DMSO) or in water. When stock solutions were prepared in DMSO, control wells contained the same final concentration of DMSO as the compound-containing wells. […] Solutions of compounds for cell treatments were diluted to a 10× final concentration by dilution of stock solutions in αMEM media. The commercially available drugs tested were: compound 5 (KN93 from Alexis); compound 6 (pyrrolidinedithiocarbamate or PDTC from Sigma), compound 7 (SB203580 from Alexis Corporation), compound 8 (PD98059 from Alexis Corporation), and compound 9 (UO126 from Cell Signaling). […] Respectively, Western blots of cell lysates were done with the following antibodies: monoclonal anti-iNOS (1:1000 dilution, Transduction Labs); polyclonal anti-rat IL-1β (1:1000 dilution, R&D Systems, Inc.); monoclonal anti-glial fibrillary acidic protein (GFAP) (1:[…] dilution, Sigma); polyclonal anti-rat alioE (1:15,000 dilution) prepared as described; polyclonal anti-COX-2 (1:500 dilution) and monoclonal anti-phosphoATF2 (1:1000 dilution) from Santa Cruz Biotechnology, polyclonal anti-phosphoCREB (1:1000 dilution), and polyclonal anti-phosphop38 MAPK (1:1000 dilution). Reconstituted enzyme assays were done as described s. The sources of protein kinases were: bovine heart PKA from Promega, rat brain PKC from Calbiochem, rat CaMKII from New England Biolabs, chicken gizzard MLCK prepared as described, and a p38 MAP kinase kit containing recombinant Xenopus p38-MAPK and its human substrate from Upstate Biotechnology. The catalytic domains of these protein kinases retain a high level of amino acid sequence identity across mammalian species, consistent with the lack of documented major differences across species for the in vitro catalytic activity of a given kinase.
FIG. 4. Cell-based screen for functional effects of synthetic compounds on LPS-stimulated NO release from BV-2 cells. BV-2 cells were incubated for 24 hr with LPS (500 ng/ml) in the presence of increasing concentrations of: A) MW01-070C; B) MW01-026Z; C) MW01-118Z; D) MW01-119Z; E) MW01-051Z; F) MW01-160Z; G) MW01-196A; H) MW01-024Z; I) SB203580; J) PDTC; K) U0126; L) PD98059. The nitrite levels in conditioned media were determined. Inhibition is expressed as percentage of control values, where the control is the nitrite level in cells stimulated with LPS alone.
Compounds were tested for their effects on NO production by LPS-stimulated BV-2 cells as previously described [Mirzoeva, S., Koppal, T., Petrova, T. V., Lukas, T. J., Watterson, D. M., and Van Eldik, L. J. (1999) Brain Res. 844, 126-134]. The levels of nitrite, a stable NO metabolite, in conditioned media were determined by the Griess assay as previously described [Hu, J., Castets, F., Guevara, J. L., and Van Eldik, L. J. (1996) J. Biol. Chem. 271, 2543-2547]. Stock solutions of compounds were prepared in DMSO or in water. When stock solutions were prepared in DMSO, control wells contained the same final concentration of DMSO as the compound-containing wells. Solutions of compounds for cell treatments were diluted to a 10× final concentration by dilution of stock solutions of drugs in αMEM media.

CaMKII = target: T1, CaMKII (Rattus norvegicus, UniProt P11275); assay: Reconstituted enzyme assay, CaMKII; format: biochemical; conditions: Table 6; read-out: Inhibition CAMKII
T1 construct: purchased New England Biolabs
T1 sequence (P11275 1-325 limits assumed): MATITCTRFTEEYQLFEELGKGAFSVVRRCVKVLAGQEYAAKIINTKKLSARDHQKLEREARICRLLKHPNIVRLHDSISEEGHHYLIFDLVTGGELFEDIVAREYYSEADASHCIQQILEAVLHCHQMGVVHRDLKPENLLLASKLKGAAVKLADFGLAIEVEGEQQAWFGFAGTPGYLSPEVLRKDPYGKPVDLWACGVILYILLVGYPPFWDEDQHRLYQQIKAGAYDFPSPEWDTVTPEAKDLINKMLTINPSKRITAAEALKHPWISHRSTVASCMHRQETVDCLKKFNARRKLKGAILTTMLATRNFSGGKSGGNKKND
Protocol: (§1) [table] […] The rationale for using BV-2 cells in high throughput screening was the paucity of well-characterized human microglial cell lines, and the relevant activation responses and signaling pathways reflect those seen in human and rodent primary microglial cultures. Compounds were tested for their effects on NO accumulation in conditioned media of LPS-stimulated BV-2 cells by measurement of nitrite production by the Griess assay as a read-out for iNOS activity, as described previously. Stock solutions of compounds were prepared in dimethylsulfoxide (DMSO) or in water. When stock solutions were prepared in DMSO, control wells contained the same final concentration of DMSO as the compound-containing wells. […] Solutions of compounds for cell treatments were diluted to a 10× final concentration by dilution of stock solutions in αMEM media. […] Reconstituted enzyme assays were done as described s. The sources of protein kinases were: bovine heart PKA from Promega, rat brain PKC from Calbiochem, rat CaMKII from New England Biolabs, chicken gizzard MLCK prepared as described, and a p38 MAP kinase kit containing recombinant Xenopus p38-MAPK and its human substrate from Upstate Biotechnology. The catalytic domains of these protein kinases retain a high level of amino acid sequence identity across mammalian species, consistent with the lack of documented major differences across species for the in vitro catalytic activity of a given kinase.

[1] = target: T2, myosin light chain kinase (MLCK) (Gallus gallus, UniProt P11799); assay: Reconstituted enzyme assay, MLCK; format: biochemical, chicken; conditions: Table 6; read-out: Inhibition MLCK
T2 construct: chicken gizzard MLCK prepared as described; from tissue; host or cells: chicken gizzard
T2 sequence (P11799 935-1906): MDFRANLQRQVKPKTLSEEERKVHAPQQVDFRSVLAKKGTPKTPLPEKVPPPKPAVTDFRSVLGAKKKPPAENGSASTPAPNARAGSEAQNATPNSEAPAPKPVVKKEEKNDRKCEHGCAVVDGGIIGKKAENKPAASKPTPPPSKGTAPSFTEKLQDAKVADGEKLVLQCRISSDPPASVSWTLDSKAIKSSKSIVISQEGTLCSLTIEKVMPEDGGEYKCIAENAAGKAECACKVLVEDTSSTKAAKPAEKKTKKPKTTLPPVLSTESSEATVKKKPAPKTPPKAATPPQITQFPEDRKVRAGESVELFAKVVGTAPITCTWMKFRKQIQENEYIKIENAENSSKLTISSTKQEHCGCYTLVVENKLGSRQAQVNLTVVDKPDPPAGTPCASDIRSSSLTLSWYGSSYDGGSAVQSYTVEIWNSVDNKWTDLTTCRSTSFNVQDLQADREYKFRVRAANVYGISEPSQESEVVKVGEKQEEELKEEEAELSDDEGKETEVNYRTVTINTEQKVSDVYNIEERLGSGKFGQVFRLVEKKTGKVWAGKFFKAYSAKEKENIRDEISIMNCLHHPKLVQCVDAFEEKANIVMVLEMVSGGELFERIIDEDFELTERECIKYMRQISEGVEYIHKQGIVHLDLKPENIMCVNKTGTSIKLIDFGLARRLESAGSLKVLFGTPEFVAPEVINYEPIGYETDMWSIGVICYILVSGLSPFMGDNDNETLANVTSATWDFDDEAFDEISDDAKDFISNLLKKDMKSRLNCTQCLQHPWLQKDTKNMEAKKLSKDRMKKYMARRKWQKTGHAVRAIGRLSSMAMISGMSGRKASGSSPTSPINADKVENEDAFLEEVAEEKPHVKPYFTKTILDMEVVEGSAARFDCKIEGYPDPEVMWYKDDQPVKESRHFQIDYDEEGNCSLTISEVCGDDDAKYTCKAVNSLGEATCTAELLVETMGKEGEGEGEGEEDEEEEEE
Protocol: as §1

[2] = target: death associated protein kinase (DAPK) (Homo sapiens, UniProt P53355); assay: Enzyme assay, DAPK; format: biochemical; conditions: Table 6; read-out: Inhibition DAPK
Chain of death associated protein kinase (DAPK) (P53355 whole entry, species assumed): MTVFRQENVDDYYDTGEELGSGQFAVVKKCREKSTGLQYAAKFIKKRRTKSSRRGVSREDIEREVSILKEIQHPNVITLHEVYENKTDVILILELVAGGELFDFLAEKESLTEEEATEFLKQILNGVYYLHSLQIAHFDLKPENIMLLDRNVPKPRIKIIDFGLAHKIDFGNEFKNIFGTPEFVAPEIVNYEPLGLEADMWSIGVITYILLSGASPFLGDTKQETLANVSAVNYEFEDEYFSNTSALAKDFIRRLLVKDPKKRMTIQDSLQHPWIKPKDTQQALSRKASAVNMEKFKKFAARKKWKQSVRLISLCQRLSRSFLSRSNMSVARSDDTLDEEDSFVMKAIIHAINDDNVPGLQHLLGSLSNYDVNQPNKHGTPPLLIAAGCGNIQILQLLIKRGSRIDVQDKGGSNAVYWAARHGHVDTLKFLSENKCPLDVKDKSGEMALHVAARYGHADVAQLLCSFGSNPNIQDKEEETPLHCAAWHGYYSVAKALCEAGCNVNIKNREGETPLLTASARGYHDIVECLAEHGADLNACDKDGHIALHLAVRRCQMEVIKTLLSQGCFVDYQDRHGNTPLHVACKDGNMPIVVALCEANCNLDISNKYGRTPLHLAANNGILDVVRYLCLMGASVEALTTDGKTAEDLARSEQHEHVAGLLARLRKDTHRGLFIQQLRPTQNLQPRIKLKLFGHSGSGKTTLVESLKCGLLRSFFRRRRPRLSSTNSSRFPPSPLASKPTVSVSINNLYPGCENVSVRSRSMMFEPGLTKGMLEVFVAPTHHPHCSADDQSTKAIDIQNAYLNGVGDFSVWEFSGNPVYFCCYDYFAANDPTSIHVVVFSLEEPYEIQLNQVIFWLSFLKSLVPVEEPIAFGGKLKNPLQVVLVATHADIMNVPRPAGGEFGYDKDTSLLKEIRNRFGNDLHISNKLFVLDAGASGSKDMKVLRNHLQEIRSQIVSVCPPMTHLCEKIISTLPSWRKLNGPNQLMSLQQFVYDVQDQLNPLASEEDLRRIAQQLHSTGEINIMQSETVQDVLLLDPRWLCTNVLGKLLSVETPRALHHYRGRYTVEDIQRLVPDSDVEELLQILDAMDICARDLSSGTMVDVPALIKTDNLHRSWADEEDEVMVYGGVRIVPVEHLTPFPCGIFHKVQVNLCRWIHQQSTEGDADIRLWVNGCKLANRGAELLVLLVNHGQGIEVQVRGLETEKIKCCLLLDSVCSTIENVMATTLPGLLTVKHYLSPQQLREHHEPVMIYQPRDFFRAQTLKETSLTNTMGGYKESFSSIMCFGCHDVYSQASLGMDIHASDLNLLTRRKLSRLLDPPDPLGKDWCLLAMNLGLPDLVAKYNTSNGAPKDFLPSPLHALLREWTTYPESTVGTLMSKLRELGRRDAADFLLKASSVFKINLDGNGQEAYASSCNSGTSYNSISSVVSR
Protocol: Therefore, compound MW01-026Z was selected as a starting point for variations on component A (Table 6). […] However, none of the A variations appeared to improve the activity and selectivity profile of CompoundMW01-026Z. (For purposes of illustration, only, component G was maintained throughout as an acyl moiety, while component R2 was varied as shown. All such compositions are available using the synthetic techniques described herein. Enzyme assays were conducted per procedures described elsewhere herein.) A more comprehensive structure activity relationship is summarized in Table 7, below.
With reference to the compositions of Table 3 and the enzyme assay techniques described elsewhere herein, Table 7 provides structural activity relationships observed, in accordance with this invention.

rat astrocytes = assay: Western blot of glial activation responses in rat astrocyte cultures; format: cell-based; conditions: LPS-stimulated rat astrocytes, 24 hr, Western blot
Protocol: FIG. 2. Selective effects of compound 1 (MW01-070C) on glial activation responses and gene-regulating protein kinase pathways. BV-2 cells and rat astrocytes were treated with control buffer (C) or stimulated with LPS or Aβ1-42 peptide in the presence or absence of compound 1, and cell lysates were analyzed by Western blots. (A) Astrocytes treated with LPS and compound 1 show concentration-dependent inhibition of iNOS and IL-1β production but not GFAP. (B) Astrocytes treated with A β1-42 and compound 1 (10 μM) show inhibition of iNOS and IL-1β but not apoE and COX-2. (C) BV-2 cells treated with LPS and compound 1 (10 μM) show inhibition of phosphorylated (p-) CREB but not p-p38 and p-ATF2, as assayed with antibodies that are specific for the phosphorylated forms of the proteins. Data are expressed as percent control (mean±SD; n=3 determinations).
The rationale for using BV-2 cells in high throughput screening was the paucity of well-characterized human microglial cell lines, and the relevant activation responses and signaling pathways reflect those seen in human and rodent primary microglial cultures. Compounds were tested for their effects on NO accumulation in conditioned media of LPS-stimulated BV-2 cells by measurement of nitrite production by the Griess assay as a read-out for iNOS activity, as described previously. Stock solutions of compounds were prepared in dimethylsulfoxide (DMSO) or in water. When stock solutions were prepared in DMSO, control wells contained the same final concentration of DMSO as the compound-containing wells. […] Solutions of compounds for cell treatments were diluted to a 10× final concentration by dilution of stock solutions in αMEM media. The commercially available drugs tested were: compound 5 (KN93 from Alexis); compound 6 (pyrrolidinedithiocarbamate or PDTC from Sigma), compound 7 (SB203580 from Alexis Corporation), compound 8 (PD98059 from Alexis Corporation), and compound 9 (UO126 from Cell Signaling). SB203580, U0126 and PD98059, PDTC, and KN93 are used as pathway-selective inhibitors of p38 MAPK, MEK1/2, NFκB, and CaMKII signaling pathways. Respectively, Western blots of cell lysates were done with the following antibodies: monoclonal anti-iNOS (1:1000 dilution, Transduction Labs); polyclonal anti-rat IL-1β (1:1000 dilution, R&D Systems, Inc.); monoclonal anti-glial fibrillary acidic protein (GFAP) (1:[…] dilution, Sigma); polyclonal anti-rat alioE (1:15,000 dilution) prepared as described; polyclonal anti-COX-2 (1:500 dilution) and monoclonal anti-phosphoATF2 (1:1000 dilution) from Santa Cruz Biotechnology, polyclonal anti-phosphoCREB (1:1000 dilution), and polyclonal anti-phosphop38 MAPK (1:1000 dilution). Reconstituted enzyme assays were done as described s. The sources of protein kinases were: bovine heart PKA from Promega, rat brain PKC from Calbiochem, rat CaMKII from New England Biolabs, chicken gizzard MLCK prepared as described, and a p38 MAP kinase kit containing recombinant Xenopus p38-MAPK and its human substrate from Upstate Biotechnology. The catalytic domains of these protein kinases retain a high level of amino acid sequence identity across mammalian species, consistent with the lack of documented major differences across species for the in vitro catalytic activity of a given kinase.
FIG. 5. Effects of two compounds on LPS-stimulated INOS and IL-1β production in rat astrocyte cultures. Astrocyte cultures were incubated for 24 hr with control buffer (C), LPS (100 ng/ml) alone, or LPS in the presence of increasing concentrations (0.1, 0.3, 1, 3, 10 μM) of MW01-070C (panel A) or MW01-196A (panel B). The levels of iNOS, proIL-1β, and GFAP were determined by Western blot of cell lysates.
FIG. 6. Effects of MW01-070C on astrocytes treated with various activating stimuli, and analysis of multiple activation responses. Astrocyte cultures were stimulated for 12 hr with Aβ (10 μM), S100B (0.5 μM), or LPS (100 ng/ml) in the absence (−) or presence (+) of MW01-070C (10 μM). […]

| Structure (SMILES) | inhibition of NO accumulation by activated glia (BV-2 microglial cells) | IC50 (CaMKII) | IC50 [1] | IC50 [2] | further results |
| --- | --- | --- | --- | --- | --- |
| C[S+]([O-])c1ccc(-c2nc(-c3ccncc3)c(-c3ccc(F)cc3)[nH]2)cc1 (centres unmarked) [Compound 7, SB203580, reference compound] | less effective | – | – | – | – |
| COc1cccc(-c2cc(=O)c3ccccc3o2)c1N [Compound 8, PD98059, reference compound] | less effective | – | – | – | – |
| N#CC(=C(/N)Sc1ccccc1N)/C(C#N)=C(\N)Sc1ccccc1N [Compound 9, U0126, reference compound] | less effective | – | – | – | – |
| Cc1cc(NC(=O)CCCCCCCCCCn2nc3c(cc2=N)CCc2ccccc2-3)nnc1-c1ccccc1 [MW01-008B] | – | 50 to 100 µM | < 20 µM | 50 to 100 µM | – |
| Cc1ccc(NC(=O)CCCCCCCCCCn2nc3c(cc2=N)CCc2ccccc2-3)nn1 [MW01-020B] | – | > 100 µM | > 100 µM | > 100 µM | – |
| O=C(CCCCCCCCCCN1CCN(c2ncccn2)CC1)N1CCN(c2ncccn2)CC1 [MW01-024Z] | does not have any greater cellular activity than commercially available drugs and inhibitors | – | – | – | – |
| Cc1ccc(=N)n(CCCCCCCCCCC(=O)Nc2ccc(-c3ccccc3)nn2)n1 [MW01-031Z] | – | > 100 µM | < 20 µM | > 100 µM | – |
| O=C(CCCCCCCCCNc1ccc(-c2ccccc2)nn1)Nc1ccc(-c2ccccc2)nn1 [MW01-038B] | – | – | > 100 µM | > 100 µM | – |
| N=c1cc2c(nn1CCCCCCCC(=O)N1CCN(c3ncccn3)CC1)-c1ccccc1CC2 [MW01-051Z] | significant NO inhibition activity | – | – | – | – |
| N=c1ccc(-c2ccccc2)nn1CCCCCCCC(=O)Nc1ccc(-c2ccccc2)nn1 [MW01-086B] | – | – | > 100 µM | > 100 µM | – |
| N=c1cc2c(nn1CCCCCCCC(=O)Nc1ccc(-c3ccccc3)nn1)-c1ccccc1CC2 [MW01-097B] | – | > 100 µM | 20 to 50 µM | > 100 µM | – |
| Cc1cc(=N)n(CCCCCCCCCCC(=O)Nc2ccc(-c3ccccc3)nn2)nc1-c1ccccc1 [MW01-103B] | – | > 100 µM | 20 to 50 µM | 50 to 100 µM | – |
| N=c1cc2c(nn1CCCCCCCCCCC(=O)Nc1nnc(-c3ccccc3)c3ccccc13)-c1ccccc1CC2 [MW01-119Z] | better efficacy than established anti-inflammatory compounds like SB203580 | – | – | – | – |
| N=c1cc2c(nn1CCCCC(=O)N1CCN(c3ncccn3)CC1)-c1ccccc1CC2 [MW01-160Z] | no more active than inhibitors of the NFκB pathway (PDTC) | – | – | – | – |
| Cc1ccn(CCCCCCCCCCC(=O)N2CCN(c3ncccn3)CC2)c(=N)c1 [MW01-196-AS] | little activity | – | – | – | IL-1β production (rat astrocytes): does not show dose dependent inhibition; iNOS production (rat astrocytes): does not show dose dependent inhibition |
